Experimental data: ChEMBL document CHEMBL2062486, “HIV-1 Integrase Inhibitor-Inspired Antibacterials Targeting Isoprenoid Biosynthesis” (ACS Med Chem Lett, 2012)
In brackets after ≈: the same amount, converted by molar mass. Activity calls are given as the source filed them. The rule behind the calls is not given here.

Tests used:
[1] = Inhibition of Escherichia coli UPPS-mediated undecaprenyl pyrophosphate synthesis by continuous spectrophotometric assay
[2] = biological target: T1, 4,4'-diapophytoene synthase (Staphylococcus aureus, UniProt A9JQL9); assay: Inhibition of Staphylococcus aureus isolate WT CrtM-mediated staphyloxanthin synthesis after 72 hrs by spectrophotometry
T1 sequence (A9JQL9 whole entry): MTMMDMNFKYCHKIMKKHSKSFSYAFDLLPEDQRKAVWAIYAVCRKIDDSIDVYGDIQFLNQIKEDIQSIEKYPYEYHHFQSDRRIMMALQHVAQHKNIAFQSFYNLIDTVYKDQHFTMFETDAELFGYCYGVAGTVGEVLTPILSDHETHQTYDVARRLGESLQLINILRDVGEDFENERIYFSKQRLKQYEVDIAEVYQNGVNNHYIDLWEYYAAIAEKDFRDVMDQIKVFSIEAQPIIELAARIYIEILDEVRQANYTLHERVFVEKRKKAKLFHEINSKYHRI

[3] = biological target: T2, Farnesyl pyrophosphate synthase (Homo sapiens) (UniProt P14324); assay: Inhibition of FPPS
T2 sequence (whole entry): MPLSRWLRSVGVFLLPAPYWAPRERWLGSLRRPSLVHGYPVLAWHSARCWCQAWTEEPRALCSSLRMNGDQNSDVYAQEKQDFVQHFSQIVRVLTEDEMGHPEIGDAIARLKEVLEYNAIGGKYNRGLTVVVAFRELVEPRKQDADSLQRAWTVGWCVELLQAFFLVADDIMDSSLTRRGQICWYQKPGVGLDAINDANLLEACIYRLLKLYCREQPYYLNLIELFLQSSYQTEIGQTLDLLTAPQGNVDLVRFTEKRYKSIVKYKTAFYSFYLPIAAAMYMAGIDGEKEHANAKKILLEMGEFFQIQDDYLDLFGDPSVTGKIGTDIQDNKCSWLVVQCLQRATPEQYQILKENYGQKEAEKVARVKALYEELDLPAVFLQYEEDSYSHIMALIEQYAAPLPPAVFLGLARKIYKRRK

[4] = biological target: T1, 4,4'-diapophytoene synthase; assay: Inhibition of Staphylococcus aureus His6-tagged CrtM expressed in Escherichia coli BL21(DE3) using Farnesyl pyrophosphate as substrate incubated for 30 mins prior to substrate addition by continuous spectrophotometric assay
[5] = Inhibition of Staphylococcus aureus UPPS-mediated undecaprenyl pyrophosphate synthesis by continuous spectrophotometric assay
Enterococcus faecium = assay: Antibacterial activity against Enterococcus faecium U503; assay type: functional
Staphylococcus aureus = assay: Antibacterial activity against methicillin-resistant Staphylococcus aureus USA300; assay type: functional
Escherichia coli [6] = assay: Antibacterial activity against Escherichia coli DH5alpha; assay type: functional, organism-based; details: DH5[alpha]
Bacillus anthracis = assay: Antibacterial activity against Bacillus anthracis str. Sterne; assay type: functional
[7] = Antibacterial activity against Streptococcus pyogenes M1; assay type: functional, Streptococcus pyogenes serotype M1
Listeria monocytogenes = assay: Antibacterial activity against Listeria monocytogenes; assay type: functional
MCF7 = assay: Cytotoxicity against human MCF7 cells; assay type: cell-based
Escherichia coli [8] = assay: Antibacterial activity against Escherichia coli K12; assay type: functional, organism-based; details: K-12

| Compound | IC50 [1] [µM] | IC50 [2] [µM] | inhibition [3] | IC50 [4] [µM] | Ki [4] [µM] | IC50 [5] [µM] | Ki [1] [µM] | MIC90 (Enterococcus faecium) [µg/mL] | MIC90 (Staphylococcus aureus) [µg/mL] | Activity (Escherichia coli [6]) | MIC90 (Bacillus anthracis) [µg/mL] | MIC90 [7] [µg/mL] | MIC90 (Listeria monocytogenes) [µg/mL] | IC50 (MCF7) [µM] | Activity (Escherichia coli [8]) |
| --- | --- | --- | --- | --- | --- | --- | --- | --- | --- | --- | --- | --- | --- | --- | --- |
| CCCCCCOc1cccc(Cn2ccc(O)c(C(=O)O)c2=O)c1 | 27 | 33 | inactive | 45.3 | 0.45 | – | – | – | – | – | – | – | – | – | – |
| O=C(CP(=O)(O)O)NCCCc1cccc(Oc2ccccc2)c1 | – | – | inactive | – | – | – | – | – | – | – | – | – | – | – | – |
| CCCCCCCCCCOc1cccc(Cn2ccc(O)c(C(=O)O)c2=O)c1 | > 300 | – | inactive | > 300 | – | > 300 | – | – | – | – | – | – | – | – | – |
| CCCCCCOc1cccc(CCCNC(=O)/C=C(\O)C(=O)O)c1 | 0.56 | – | inactive | > 300 | – | 0.75 | – | – | – | – | – | – | – | – | – |
| O=C(/C=C(\O)C(=O)O)NCCCc1cccc(-c2ccccc2)c1 | 0.24 | – | inactive | 24 | – | 1.8 | 0.12 | – | – | – | – | – | – | – | – |
| O=P(O)(O)C(O)(Cc1cccc(-c2cccc3c2oc2ccccc23)c1)P(=O)(O)O | 0.3 | – | – | – | – | – | – | – | – | – | – | – | – | – | – |
| O=C(/C=C(\O)C(=O)O)NCCCc1cccc(Oc2ccccc2)c1 | 2.2 | 4 | inactive | 24 | 0.25 | – | – | – | – | – | – | – | – | – | – |
| CCCCCCCCOc1ccc(C(=O)/C=C(\O)C(=O)O)cc1 | 0.5 | – | inactive | > 300 | – | 2 | – | 4 (≈ 12.5 µM) | 0.25 (≈ 0.78 µM) | inactive | 0.5 (≈ 1.56 µM) | 1 (≈ 3.12 µM) | 4 (≈ 12.5 µM) | 30 | inactive |
| CCCCCCCCCCOc1cccc(C(=O)/C=C(\O)C(=O)O)c1 | 1.9 | – | inactive | 67 | – | 0.73 | – | 4 (≈ 11.5 µM) | – | inactive | 0.5 (≈ 1.43 µM) | 1 (≈ 2.87 µM) | 4 (≈ 11.5 µM) | 30 | inactive |
